{
  "source": "patent US4425360A",
  "about": "“Pharmacologically active novel O-substituted pyruvic acid oximes” (Boehringer Mannheim GmbH, priority 1980, dated 1984)",
  "key": {"[1]": {"system": "blood-glucose concentration", "test": "Threshold dose of blood-glucose-lowering activity in fasting guinea pigs (i.p.)", "assay_type": "in vivo, guinea pig", "conditions": "Cavia porcellus, ip", "description": "1. Test procedure for determination of threshold dose\nFasting guinea pigs were used as experimental models to determine the threshold dose of the blood-glucose-lowering activity of the substances to be investigated. Food was withheld from the animals used in the investigations for 16 hours prior to the start of the tests. The animals remained without food for the entire testing period but had free access to drinking water.\nThe substances were administered intraperitoneally as a solution of the potassium salt at pH 7.4.\nA parallel control group was given an 0.9% NaCl solution.\nThe drawing of blood for determination of the glucose concentrations was effected immediately prior to administration of the substances and at one-hour intervals up to the fourth hour after the administration of the substances. To this end, an ear vein was carefully punctured with a No. 18 cannula, and the drops of blood issuing were picked up with a 10 μl capillary.\nThe blood-glucose concentration was determined in the hemolyzate by the specific hexokinase method. To this end, the 10 μl blood sample was pipetted into a stabilizer solution containing digitonin as hemolysis accelerator and maleinimide as […]. Following this, an aliquot was taken from the hemolyzate so obtained and determined by the hexokinase method on an LKB 8600 (made by LKB, Bromma, Sweden).\nThe dose which with the specified number of test animals per dose group (N=4) was just large enough to produce a significant lowering of fasting glycemia (p>0.05) was adopted as threshold dose."}, "[2]": {"system": "glucose resorption", "test": "Resorption-inhibiting activity: oral glucose loading in fasting guinea pigs", "assay_type": "in vivo, guinea pig", "conditions": "Cavia porcellus, ip, 1 g glucose p.o., AUC difference vs control; for inhibition in vivo at 20 mg/kg: dose 20 mg/kg i.p.; for inhibition in vivo at 40 mg/kg: dose 40 mg/kg i.p.; for inhibition in vivo at 25 mg/kg: dose 25 mg/kg i.p.", "description": "2. Test procedure for determination of resorption-inhibiting activity\nTo determine the effect on glucose resorption, oral glucose loading was effected. To this end, the substance to be tested was administered intraperitoneally as potassium salt, as described, to a group of ten fasting guinea pigs. At the same time, 1 g glucose was orally administered to the animals as a 20% solution by means of an esophageal bougie.\nAfter a preliminary value had been established, blood was taken from the animals at close intervals (20 min. to 200 min.) for determination of the glucose concentrations, as described.\nA parallel control group was also given 1 g glucose p. o., and intraperitoneally a corresponding amount of 0.9% NaCl solution.\nThe blood-glucose concentration was determined in the hemolyzate by the hexokinase method, as described.\nWith regard to glucose resorption, the area under the concentration/time curve, calculated by means of the empirical trapeze formula, served as quantity to be measured. The difference in the area between the control and test groups, expressed in percent, was used as a measure for the inhibition of glucose resorption."}, "[3]": {"conditions": "potassium salt pH 7.4, N=4 per dose group, smallest dose significantly lowering fasting glycemia"}, "[4]": {"conditions": "potassium salt pH 7.4, N=4, remark printed: weak"}},
  "data": [
    {"smiles": "O=C(O)C(CF)=NOCC=Cc1ccccc1", "note": "[Example 9, 2-(Cinnamyloxyimino)-3-fluoropropionic acid]", "values": [
      {"measurement": "minimal effective dose", "setting": "[1]; [3]", "result": 25, "unit": "mg/kg"},
      {"measurement": "inhibition in vivo at 20 mg/kg", "setting": "[2]", "result": 26, "unit": "%"}
    ]},
    {"smiles": "CC(=NOCCOc1ccccc1)C(=O)[O-].[Na+]", "note": "[Example 1c, sodium 2-(2-phenoxyethyloxyimino)-propionate]", "values": [
      {"measurement": "minimal effective dose", "setting": "[1]; [4]", "result": 50, "unit": "mg/kg"},
      {"measurement": "inhibition in vivo at 40 mg/kg", "setting": "[2]", "result": 25, "unit": "%"}
    ]},
    {"smiles": "CC(=NOCC=Cc1cccc(Cl)c1)C(=O)O", "note": "[Example 4, 2-(3-Chlorocinnamyloxyimino)-propionic acid]", "values": [
      {"measurement": "minimal effective dose", "setting": "[1]; [3]", "result": 25, "unit": "mg/kg"},
      {"measurement": "inhibition in vivo at 20 mg/kg", "setting": "[2]", "result": 55, "unit": "%"}
    ]},
    {"smiles": "COc1cccc(C=CCON=C(C)C(=O)O)c1", "note": "[Example 5D, 2-(3-methoxycinnamyloxyimino)-propionic acid]", "values": [
      {"measurement": "minimal effective dose", "setting": "[1]; [3]", "result": 25, "unit": "mg/kg"},
      {"measurement": "inhibition in vivo at 25 mg/kg", "setting": "[2]", "result": 36, "unit": "%"}
    ]},
    {"smiles": "CC(=NOCC=Cc1ccc(Cl)cc1)C(=O)O", "note": "[Example 4b, 2-(4-chlorocinnamyloxyimino)-propionic acid]", "values": [
      {"measurement": "minimal effective dose", "setting": "[1]; potassium salt pH 7.4, N=4, remark printed: flat D-W curve", "result": "25 to 50", "unit": "mg/kg"},
      {"measurement": "inhibition in vivo at 20 mg/kg", "setting": "[2]", "result": 10, "unit": "%"}
    ]},
    {"smiles": "CCC(=NOCC=Cc1ccccc1)C(=O)O", "note": "[Example 10a, 2-cinnamyloxyiminobutyric acid]", "values": [
      {"measurement": "minimal effective dose", "setting": "[1]; [3]", "result": 25, "unit": "mg/kg"},
      {"measurement": "inhibition in vivo at 20 mg/kg", "setting": "[2]", "result": 0, "unit": "%"}
    ]},
    {"smiles": "CC(=NOCC=Cc1ccccc1)C(=O)O", "note": "[Example 3a, 2-cinnamyloxyiminopropionic acid]", "values": [
      {"measurement": "minimal effective dose", "setting": "[1]; [3]", "result": 25, "unit": "mg/kg"},
      {"measurement": "inhibition in vivo at 10 mg/kg", "setting": "[2]; dose 10 mg/kg i.p.", "result": 33, "unit": "%"}
    ]},
    {"smiles": "CC(=NOCCc1ccccc1)C(=O)O", "note": "[Example 2a, 2-(2-phenylethyloxyimino)-propionic acid]", "values": [
      {"measurement": "minimal effective dose", "setting": "[1]; [3]", "result": 75, "unit": "mg/kg"},
      {"measurement": "inhibition in vivo at 40 mg/kg", "setting": "[2]", "result": 33, "unit": "%"}
    ]},
    {"smiles": "CC(=CCON=C(C)C(=O)O)c1ccccc1", "note": "[Example 3, 2-(γ-Methylcinnamyloxyimino)-propionic acid]", "values": [
      {"measurement": "minimal effective dose", "setting": "[1]; [3]", "result": 50, "unit": "mg/kg"},
      {"measurement": "inhibition in vivo at 30 mg/kg", "setting": "[2]; dose 30 mg/kg i.p.", "result": 0, "unit": "%"}
    ]},
    {"smiles": "CC(=NOCC#Cc1ccccc1)C(=O)O", "note": "[Example 2d, 2-(3-phenyl-2-propynyloxyimino)-propionic acid]", "values": [
      {"measurement": "minimal effective dose", "setting": "[1]; potassium salt pH 7.4, N=4, remark printed: wk. indiv. animals", "result": 25, "unit": "mg/kg"},
      {"measurement": "inhibition in vivo at 40 mg/kg", "setting": "[2]", "result": 65, "unit": "%"}
    ]},
    {"smiles": "O=C(O)C=NOCC=Cc1ccccc1", "note": "[Example 10, Cinnamyloxyiminoacetic acid]", "values": [
      {"measurement": "minimal effective dose", "setting": "[1]; [3]", "result": "> 50", "unit": "mg/kg"},
      {"measurement": "inhibition in vivo at 25 mg/kg", "setting": "[2]", "result": 69, "unit": "%"}
    ]},
    {"smiles": "CC(=NOCC=Cc1ccccc1)C(=O)N1CCN(C)CC1", "note": "[Example 8, 4-[2-(Cinnamyloxyimino)-propionyl]-1-methylpiperazine]", "values": [
      {"measurement": "minimal effective dose", "setting": "[1]; [3]", "result": "> 50", "unit": "mg/kg"},
      {"measurement": "inhibition in vivo at 40 mg/kg", "setting": "[2]", "result": 44, "unit": "%"}
    ]},
    {"smiles": "CC(=NOCC=Cc1cccc(C(F)(F)F)c1)C(=O)O", "note": "[Example 5a, 2-(3-trifluoromethylcinnamyloxyimino)-propionic acid]", "values": [
      {"measurement": "minimal effective dose", "setting": "[1]; [3]", "result": 50, "unit": "mg/kg"},
      {"measurement": "inhibition in vivo at 40 mg/kg", "setting": "[2]", "result": 34, "unit": "%"}
    ]},
    {"smiles": "CC(=NOCC=Cc1ccccc1Cl)C(=O)O", "note": "[Example 4a, 2-(2-chlorocinnamyloxyimino)-propionic acid]", "values": [
      {"measurement": "minimal effective dose", "setting": "[1]; [4]", "result": 50, "unit": "mg/kg"},
      {"measurement": "inhibition in vivo at 40 mg/kg", "setting": "[2]", "result": 41, "unit": "%"}
    ]},
    {"smiles": "CC(=NOCC=Cc1ccc(F)cc1)C(=O)O", "note": "[Example 5, 2-(4-Fluorocinnamyloxyimino)-propionic acid]", "values": [
      {"measurement": "minimal effective dose", "setting": "[1]; [3]", "result": 50, "unit": "mg/kg"},
      {"measurement": "inhibition in vivo at 40 mg/kg", "setting": "[2]", "result": 3, "unit": "%"}
    ]},
    {"smiles": "CC(=NOCCCc1ccccc1)C(=O)[O-].[Na+]", "note": "[Example 1b, sodium 2-(3-phenylpropyloxyimino)-propionate]", "values": [
      {"measurement": "minimal effective dose", "setting": "[1]; [3]", "result": "25 to 50", "unit": "mg/kg"},
      {"measurement": "inhibition in vivo at 20 mg/kg", "setting": "[2]", "result": 39, "unit": "%"}
    ]},
    {"smiles": "CC(=Cc1ccccc1)CON=C(C)C(=O)O", "note": "[Example 3b, 2-(β-methylcinnamyloxyimino)-propionic acid]", "values": [
      {"measurement": "minimal effective dose", "setting": "[1]; [3]", "result": 50, "unit": "mg/kg"},
      {"measurement": "inhibition in vivo at 40 mg/kg", "setting": "[2]", "result": 40, "unit": "%"}
    ]},
    {"smiles": "C=CCON=C(C)C(=O)O", "note": "[Example 4c, 2-(allyloxyimino)-propionic acid]", "values": [
      {"measurement": "minimal effective dose", "setting": "[1]; [3]", "result": "> 50", "unit": "mg/kg"},
      {"measurement": "inhibition in vivo at 40 mg/kg", "setting": "[2]", "result": 37, "unit": "%"}
    ]},
    {"smiles": "CC(=NOCC=Cc1cc(Cl)ccc1C)C(=O)O", "note": "[Example 5f, 2-(5-chloro-2-methylcinnamyloxyimino)-propionic acid]", "values": [
      {"measurement": "minimal effective dose", "setting": "[1]; [3]", "result": 50, "unit": "mg/kg"},
      {"measurement": "inhibition in vivo at 40 mg/kg", "setting": "[2]", "result": 33, "unit": "%"}
    ]}
  ]
}
